The values that follow come from US11046699B2, “Pyrazolo-pyrimidin-amino-cycloalkyl compounds and their therapeutic uses” (RAPT THERAPEUTICS, INC., priority 2018, dated 2021).

Sequence of GCN2 (Q9P2K8 whole entry): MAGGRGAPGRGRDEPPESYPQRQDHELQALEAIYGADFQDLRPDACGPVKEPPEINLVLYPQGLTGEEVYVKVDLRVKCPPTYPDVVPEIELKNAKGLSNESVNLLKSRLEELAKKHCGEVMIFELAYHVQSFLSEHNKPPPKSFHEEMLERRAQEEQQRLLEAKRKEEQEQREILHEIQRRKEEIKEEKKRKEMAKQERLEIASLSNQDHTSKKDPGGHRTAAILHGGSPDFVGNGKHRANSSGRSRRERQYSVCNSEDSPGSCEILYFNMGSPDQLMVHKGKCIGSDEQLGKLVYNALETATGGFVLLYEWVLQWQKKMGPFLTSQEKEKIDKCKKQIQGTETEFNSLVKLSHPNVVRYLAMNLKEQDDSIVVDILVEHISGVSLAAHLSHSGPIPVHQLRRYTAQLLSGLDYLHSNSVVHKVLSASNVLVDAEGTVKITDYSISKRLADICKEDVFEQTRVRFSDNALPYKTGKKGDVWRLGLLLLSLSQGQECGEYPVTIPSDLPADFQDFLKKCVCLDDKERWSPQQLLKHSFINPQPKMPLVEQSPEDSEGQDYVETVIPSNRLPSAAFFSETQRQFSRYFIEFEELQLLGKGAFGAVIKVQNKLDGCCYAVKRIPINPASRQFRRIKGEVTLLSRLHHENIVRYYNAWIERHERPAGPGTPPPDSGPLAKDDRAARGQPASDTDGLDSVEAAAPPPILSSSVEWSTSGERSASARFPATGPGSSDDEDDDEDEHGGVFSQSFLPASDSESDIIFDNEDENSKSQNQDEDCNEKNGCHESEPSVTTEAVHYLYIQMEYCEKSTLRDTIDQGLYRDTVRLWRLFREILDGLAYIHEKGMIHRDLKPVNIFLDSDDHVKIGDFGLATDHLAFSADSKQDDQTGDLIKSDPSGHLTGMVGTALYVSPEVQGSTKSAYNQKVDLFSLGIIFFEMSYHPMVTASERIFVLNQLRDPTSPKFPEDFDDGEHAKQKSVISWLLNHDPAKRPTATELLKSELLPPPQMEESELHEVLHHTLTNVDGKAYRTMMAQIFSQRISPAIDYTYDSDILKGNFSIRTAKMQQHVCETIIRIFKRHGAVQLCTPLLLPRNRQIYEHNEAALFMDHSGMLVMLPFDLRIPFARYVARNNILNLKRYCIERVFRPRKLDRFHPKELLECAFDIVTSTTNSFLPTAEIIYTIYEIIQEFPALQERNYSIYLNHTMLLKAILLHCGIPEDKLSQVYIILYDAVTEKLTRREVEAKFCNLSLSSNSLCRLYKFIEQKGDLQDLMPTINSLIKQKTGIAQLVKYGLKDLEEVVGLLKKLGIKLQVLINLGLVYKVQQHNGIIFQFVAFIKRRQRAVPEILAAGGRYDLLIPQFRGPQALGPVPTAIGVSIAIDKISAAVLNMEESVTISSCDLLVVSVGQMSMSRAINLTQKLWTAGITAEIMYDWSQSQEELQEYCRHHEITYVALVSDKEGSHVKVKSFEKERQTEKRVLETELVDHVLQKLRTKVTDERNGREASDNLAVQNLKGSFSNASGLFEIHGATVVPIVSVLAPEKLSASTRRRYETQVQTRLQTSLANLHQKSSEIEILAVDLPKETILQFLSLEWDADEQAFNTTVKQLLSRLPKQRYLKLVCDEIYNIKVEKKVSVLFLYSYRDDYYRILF

The first assay has as its target GCN2 (Homo sapiens, UniProt Q9P2K8). Nature of the assay: GCN2 enzymatic endpoint assay: phosphorylation of GFP-eIF2α measured by TR-FRET (Lanthascreen). Type of assay: biochemical. The note with it: GCN2 biochemical IC50; 4 nM GCN2, 2 μM ATP, 80 nM GFP-eIF2α, 90 min RT; read-out: GCN2 activity. In short, it runs like this: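 Phosphorylated eIF2α read by Lanthascreen TR-FRET (acceptor 520 nm over donor 495 nm) after EDTA stop. The reaction ran 90 min at room temperature on 80 nM GFP-eIF2α with 2 μM ATP.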
(TR-FRET usually uses a lanthanide donor and a delayed reading to cut background.)
Turning to `CNC(=O)[C@]1(C)CC[C@@H](Nc2ncc3c(Br)nn(-c4ccc5nc(N6CCC6)ncc5c4)c3n2)C1` [Example 73, (1R,3R)-3-((1-(2-(azetidin-1-yl)quinazolin-6-yl)-3-bromo-1H-pyrazolo[3,4-d]pyrimidin-6-yl)amino)-N,1-dimethylcyclopentane-1-carboxamide], the IC50 lay within 25 to 200 nM.

For `CS(=O)(=O)N[C@@H]1CCC(Nc2ncc3c(Br)nn(-c4ccc5ncccc5c4)c3n2)C1` (mixture of isomers) [Example 15, N-(trans-3-((3-bromo-1-(quinolin-6-yl)-1H-pyrazolo[3,4-d]pyrimidin-6-yl)amino)cyclopentyl)methanesulfonamide], the IC50 fell in the range of 200 to 500 nM.

The assay is the same for the next values; noted with them: tested as described in Example 77; compound and/or hydrochloride, dihydrochloride or trifluoroacetic acid salt; read-out: IC 50 Activity.
Take `CNC(=O)[C@]1(C)CC[C@@H](Nc2ncc3c(Br)nn(-c4ccc5c(c4)CN(S(=O)(=O)C4COC4)C5)c3n2)C1` [(1R,3R)-3-[[3-bromo-1-[2-(oxetan-3-ylsulfonyl)isoindolin-5-yl]pyrazolo[3,4-d]pyrimidin-6-yl]amino]-N,1-dimethyl-cyclopentanecarboxamide]: the IC50 lay within 25 to 200 nM. Still for that read-out and setting: with `CNC(=O)[C@]1(C)CC[C@@H](Nc2ncc3c(Br)nn(-c4cc(CNS(=O)(=O)C5COC5)c5nccnc5c4)c3n2)C1` [(1R,3R)-3-[[3-bromo-1-[8-[(oxetan-3-ylsulfonylamino)methyl]quinoxalin-6-yl]pyrazolo[3,4-d]pyrimidin-6-yl]amino]-N,1-dimethyl-cyclopentane-carboxamide] the figure was 25 to 200 nM; with `Cc1nnc(-c2ccc(-n3nc(Br)c4cnc(N[C@@H]5CC[C@@](C)(C(=O)O)C5)nc43)cc2CCN)s1` [(1R,3R)-3-[[1-[3-(2-aminoethyl)-4-(5-methyl-1,3,4-thiadiazol-2-yl)phenyl]-3-bromo-pyrazolo[3,4-d]pyrimidin-6-yl]amino]-1-methyl-cyclopentanecarboxylic acid], 25 to 200 nM. Still for that read-out and setting: the figure for `CNC(=O)[C@]1(C)CC[C@@H](Nc2ncc3c(Br)nn(-c4cc(Cl)c(F)c(CS(C)(=O)=O)c4)c3n2)C1` is 25 to 200 nM; for `Cc1nnc(-c2ccc(-n3nc(Br)c4cnc(N[C@@H]5CC[C@@H](NC(=O)C6CC(C)(O)C6)C5)nc43)cc2)s1` (stereo partly drawn) [N-[(1R,3R)-3-[[3-bromo-1-[4-(5-methyl-1,3,4-thiadiazol-2-yl)phenyl]pyrazolo [3,4-d]pyrimidin-6-yl]amino]cyclopentyl]-3-hydroxy-3-methyl-cyclobutane-carboxamide] it is 25 to 200 nM; for `O=C1CN(C(=O)[C@@H]2CC[C@@H](Nc3ncc4c(Br)nn(-c5cc(C(F)F)c6ncccc6c5)c4n3)C2)CCN1` [4-((1R,3R)-3-((3-bromo-1-(8-(difluoromethyl)quinolin-6-yl)-1H-pyrazolo[3,4-d]pyrimidin-6-yl)amino)cyclopentane-1-carbonyl)piperazin-2-one] it is 25 to 200 nM. Same read-out and setting: the figure for `NC(=O)C1(NC(=O)[C@@H]2CC[C@@H](Nc3ncc4c(Br)nn(-c5cc(F)c6ncccc6c5)c4n3)C2)CCC1` [(1R,3R)-3-[[3-bromo-1-(8-fluoro-6-quinolyl)pyrazolo[3,4-d]pyrimidin-6-yl]amino]-N-(1-carbamoylcyclobutyl)cyclopentane-carboxamide] is 25 to 200 nM; for `CC1(C(=O)N2CCOCC2)CC[C@@H](Nc2ncc3c(Br)nn(-c4cc(F)c5ncccc5c4)c3n2)C1` (stereo partly drawn) [[(3R)-3-[[3-bromo-1-(8-fluoro-6-quinolyl)pyrazolo[3,4-d]pyrimidin-6-yl]amino]-1-methyl-cyclopentyl]-morpholino-methanone] it is less than 25 nM; for `CNC(=O)[C@@H]1CC[C@@H](Nc2ncc3c(Br)nn(-c4ccc(-c5cnn(CCOC)c5)cc4)c3n2)C1` [(1R,3R)-3-[[3-bromo-1-[4-[1-(2-methoxy-ethyl)pyrazol-4-yl]phenyl]pyrazolo[3,4-d]pyrimidin-6-yl]amino]-N-methyl-cyclopentanecarboxamide] it is 25 to 200 nM. `CNC(=O)[C@]1(C)CC[C@@H](Nc2ncc3c(Br)nn(-c4cc(CNCCOC)cc(OC(F)(F)F)c4)c3n2)C1` [(1R,3R)-3-[[3-bromo-1-[3-[(2-methoxy-ethylamino)methyl]-5-(trifluoromethoxy)phenyl]pyrazolo[3,4-d]pyrimidin-6-yl]amino]-N,1-dimethyl-cyclopentanecarboxamide]: the IC50 lay in the range of 25 to 200 nM. Consider `CNC(=O)[C@]1(C)CC[C@@H](Nc2ncc3c(Br)nn(-c4ccc(-c5nnc(C)s5)c(OCC5CNC5)c4)c3n2)C1` [(1R,3R)-3-[[1-[3-(azetidin-3-ylmethoxy)-4-(5-methyl-1,3,4-thiadiazol-2-yl)phenyl]-3-bromo-pyrazolo[3,4-d]pyrimidin-6-yl]amino]-N,1-dimethyl-cyclopentane-carboxamide], for which the IC50 fell in the range of 25 to 200 nM. For the compound `CNC(=O)[C@@H]1CC[C@@H](Nc2ncc3c(Br)nn(-c4ccn5nccc5c4)c3n2)C1` [(1R,3R)-3-[(3-bromo-1-pyrazolo[1,5-a]pyridin-5-yl-pyrazolo[3,4-d]pyrimidin-6-yl)amino]-N-methyl-cyclopentane-carboxamide], the IC50 lay within 25 to 200 nM. Turning to `CNC(=O)[C@]1(C)CC[C@@H](Nc2ncc3c(Br)nn(-c4cccc(NC5COC5)c4)c3n2)C1` [(1R,3R)-3-[[3-bromo-1-[3-(oxetan-3-ylamino)phenyl]pyrazolo[3,4-d]pyrimidin-6-yl]amino]-N,1-dimethyl-cyclopentanecarboxamide], the IC50 was in the range of 25 to 200 nM. The same measure, in the same setting: the figure for `CNC(=O)[C@]1(C)CC[C@@H](Nc2ncc3c(Br)nn(-c4ccc(-c5ncc(C)[nH]5)cc4)c3n2)C1` [(1R,3R)-3-[[3-bromo-1-[4-(5-methyl-1H-imidazol-2-yl)phenyl]pyrazolo[3,4-d]pyrimidin-6-yl]amino]-N,1-dimethyl-cyclopentanecarboxamide] is 25 to 200 nM; for `CNC(=O)[C@]1(C)CC[C@@H](Nc2ncc3c(Br)nn(-c4ccc5nc[nH]c(=O)c5c4)c3n2)C1` it is 25 to 200 nM; for `CNC(=O)[C@]1(C)CC[C@@H](Nc2ncc3c(Br)nn(-c4ccc(-n5cccn5)cc4)c3n2)C1` [(1R,3R)-3-[[3-bromo-1-(4-pyrazol-1-ylphenyl)pyrazolo[3,4-d]pyrimidin-6-yl]amino]-N,1-dimethyl-cyclopentane-carboxamide] it is 25 to 200 nM. The same measure, in the same setting: with `N#Cc1cc(-n2nc(Br)c3cnc(N[C@@H]4CC[C@@H](C(=O)N5CCCC5)C4)nc32)cc2cccnc12` [6-(3-bromo-6-(((1R,3R)-3-(pyrrolidine-1-carbonyl)cyclopentyl)amino)-1H-pyrazolo [3,4-d]pyrimidin-1-yl)quinoline-8-carbonitrile] the figure was 25 to 200 nM; with `CNC(=O)[C@]1(C)CC[C@@H](Nc2ncc3c(Br)nn(-c4ccc5ncn(CCN6C(=O)c7ccccc7C6=O)c(=O)c5c4)c3n2)C1`, 25 to 200 nM; with `CC1(C(=O)NC2CCOCC2)CC(Nc2ncc3c(Br)nn(-c4ccc5ncccc5c4)c3n2)C1` (centres unmarked), 25 to 200 nM. `N#CCN1CCN(C(=O)[C@@H]2CC[C@@H](Nc3ncc4c(Br)nn(-c5cc(F)c6ncccc6c5)c4n3)C2)CC1` [2-[4-[(1R,3R)-3-[[3-bromo-1-(8-fluoro-6-quinolyl)pyrazolo[3,4-d]pyrimidin-6-yl]amino]cyclopentanecarbonyl]piperazin-1-yl]acetonitrile]: the IC50 was 25 to 200 nM. On to `CNC(=O)[C@]1(C)CC[C@@H](Nc2ncc3c(Br)nn(-c4ccc(-c5nnc(CN)s5)cc4)c3n2)C1` [(1R,3R)-3-[[1-[4-[5-(aminomethyl)-1,3,4-thiadiazol-2-yl]phenyl]-3-bromo-pyrazolo [3,4-d]pyrimidin-6-yl]amino]-N,1-dimethyl-cyclopentanecarboxamide], for which the IC50 was in the range of 25 to 200 nM. On the same count and under the same terms, the figure for `CN1CN(C(=O)[C@@]2(C)CC[C@@H](Nc3ncc4c(Br)nn(-c5cc(F)c6ncccc6c5)c4n3)C2)CC1=O` [1-[(1S,3R)-3-[[3-bromo-1-(8-fluoro-6-quinolyl)pyrazolo[3,4-d]pyrimidin-6-yl]amino]-1-methyl-cyclopentanecarbonyl]-3-methyl-imidazolidin-4-one] is 25 to 200 nM.

In the case of `C[C@@H]1CN(C(=O)C2(C)CC[C@@H](Nc3ncc4c(Br)nn(-c5cc(F)c6ncccc6c5)c4n3)C2)C[C@@H](C)O1` (stereo partly drawn) [[(3R)-3-[[3-bromo-1-(8-fluoro-6-quinolyl)pyrazolo[3,4-d]pyrimidin-6-yl]amino]-1-methyl-cyclopentyl]-[(2R,6R)-2,6-dimethylmorpholin-4-yl]methanone], the IC50 lay within 25 to 200 nM.

As to `CNC(=O)[C@]1(C)CC[C@@H](Nc2ncc3c(Br)nn(-c4ccc(-c5nnc(C)s5)c(CCC(=O)O)c4)c3n2)C1` [3-[5-[3-bromo-6-[[(1R,3R)-3-methyl-3-(methylcarbamoyl)cyclopentyl]amino]pyrazolo[3,4-d]pyrimidin-1-yl]-2-(5-methyl-1,3,4-thiadiazol-2-yl)phenyl] propanoic acid], the IC50 was in the range of 25 to 200 nM. On the same count and under the same terms, the figure for `C[C@H]1CN(C(=O)[C@@H]2CC[C@@H](Nc3ncc4c(Br)nn(-c5ccc6ncccc6c5)c4n3)C2)C[C@H](C)O1` [((1R,3R)-3-((3-bromo-1-(quinolin-6-yl)-1H-pyrazolo[3,4-d]pyrimidin-6-yl)amino)cyclo-pentyl)((2S,6S)-2,6-dimethylmorpholino) methanone] is 25 to 200 nM; for `O=C(NCCO)[C@@H]1CC[C@@H](Nc2ncc3c(Br)nn(-c4ccc5ncccc5c4)c3n2)C1` [(1R,3R)-3-((3-bromo-1-(quinolin-6-yl)-1H-pyrazolo[3,4-d]pyrimidin-6-yl)amino)-N-(2-hydroxyethyl)cyclopentane-1-carboxamide] it is 25 to 200 nM; for `CNC(=O)[C@]1(C)CC[C@@H](Nc2ncc3c(Br)nn(-c4cc(CN5C(=O)CCC5=O)c5ncccc5c4)c3n2)C1` [(1R,3R)-3-[[3-bromo-1-[8-[(2,5-dioxo-pyrrolidin-1-yl)methyl]-6-quinolyl]pyrazolo[3,4-d]pyrimidin-6-yl]amino]-N,1-dimethyl-cyclopentanecarboxamide] it is 25 to 200 nM.
